For two compounds, EC50 results are on record in ChEMBL document CHEMBL1150716, “Cytotoxic flavonols from Gutierrezia microcephala” (1987).

In brackets after ≈: the same amount, converted by molar mass.

The test system of the test is P388. As to the kind of experiment: Cytotoxicity against mouse P388 cells. As to conditions: read-out: ED50 (the source's name). In kind it is functional.

Take `COc1cc(O)c2c(=O)c(OC)c(-c3ccc(O)c(O)c3)oc2c1`: the EC50 was determined as 3.2 µg/mL (≈ 9.69 µM).

`COc1cc(-c2oc3cc(O)cc(O)c3c(=O)c2OC)ccc1O` [3,3'-O-DIMETHYLQUERCETIN]: the EC50 was 1.7 µg/mL (≈ 5.15 µM).
